Experimental data from patent US20210330611A1, “THERAPY FOR NEUROLOGICAL DISEASES/DISORDERS” (priority 2020, published 2021).
Where a name gives a salt, the structure may show the parent alone. Read-outs that look alike come from different tables or passages of the source.

Assays:
[1] = system: fibrin-induced microglia activation; assay: Image-based assay of fibrin-induced microglia activation (HTS and dose response); format: cell-based, rat; conditions: for inhibition at 10 µM: Rattus norvegicus, Microglia, read-out: Fibrin % inhibition
[2] = system: LPS-induced microglia activation; assay: Image-based assay of LPS-induced microglia activation (HTS and dose response); format: cell-based, rat; conditions: for inhibition at 10 µM: Rattus norvegicus, Microglia, read-out: LPS % inhibition
primary rat microglia [3] = assay: Cell toxicity (dead cells, size <150 μm2) in LPS assay
primary rat microglia [4] = assay: Cell toxicity (dead cells, size <150 μm2) in coated fibrin (cFib) assay;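 further: share of dead cells sized under 150 µm2 at 10 µM in fibrin-stimulated microglia HTS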
[5] = system: fibrin- and LPS-induced microglia activation; assay: cells; format: cell-based, rat
[6] = primary HTS, 10 μM, fibrin-stimulated primary microglia
[7] = primary HTS, 10 μM, LPS-stimulated primary microglia
[8] = primary HTS, 10 μM, LPS assay, dead cells size <150 μm2
[9] = primary HTS, 10 μM, fibrin assay, dead cells size <150 μm2
[10] = primary microglia HTS, fibrin stimulation, increased cell size (>800 μm^2) as marker of activation
[11] = 48 h, primary microglia HTS, LPS stimulation, increased cell size (>800 μm^2) as marker of activation
[12] = primary microglia HTS, LPS stimulation, decreased size (<150 μm^2) as marker of toxicity
[13] = primary microglia HTS, fibrin stimulation, decreased size (<150 μm^2) as marker of toxicity
[14] = quadrant by fibrin and LPS inhibition in HTS of 1907 compounds

| SMILES | inhibition at 10 µM [1, 6] [%] | inhibition at 10 µM [2, 7] [%] | LPS % cell toxicity (primary rat microglia [3]; [8]) [%] | Fibrin % cell toxicity (primary rat microglia [4]; [9]) [%] | Quadrant (FIG. 5b) ([5]; primary HTS, 10 μM) | Fibrin % inhibition [1, 6] [%] | LPS % inhibition [2, 7] [%] | inhibition at 10 µM [1, 10] [%] | inhibition at 10 µM [2, 11] [%] | LPS % cell toxicity (primary rat microglia [3]; [12]) [%] | Fibrin % cell toxicity (primary rat microglia [4]; [13]) [%] | Quadrant (FIG. 5b) [5, 14] |
| --- | --- | --- | --- | --- | --- | --- | --- | --- | --- | --- | --- | --- |
| CO/N=C(\C(=O)N[C@@H]1C(=O)N2C(C(=O)O)=C(CSc3nnnn3C)CS[C@H]12)c1csc(N)n1 [Cefmenoxime Hydrochloride] | -15 | 2 | 0 | 0 | Q4 | – | – | – | – | – | – | – |
| CO[C@@]1(NC(=O)CSCC#N)C(=O)N2C(C(=O)O)=C(CSc3nnnn3C)CS[C@@H]21 [Cefmetazole] | -50 | 8 | 0 | 0 | Q4 | – | – | – | – | – | – | – |
| O=C(O)C1=C(CSc2nnnn2CS(=O)(=O)O)CS[C@@H]2[C@H](NC(=O)[C@H](O)c3ccccc3)C(=O)N12 [Cefonicid Sodium] | -11 | 15 | 0 | 0 | Q4 | – | – | – | – | – | – | – |
| NCc1ccccc1CC(=O)N[C@@H]1C(=O)N2C(C(=O)O)=C(CSc3nnnn3CC(=O)O)CS[C@H]12 [Ceforanide] | -2 | 14 | 1 | 1 | Q4 | – | – | – | – | – | – | – |
| CO/N=C(\C(=O)N[C@@H]1C(=O)N2C(C(=O)O)=C(COC(C)=O)CS[C@H]12)c1csc(N)n1 [Cefotaxime Sodium] | – | – | 0 | 0 | Q4 | −1 | 3 | – | – | – | – | – |
| CO/N=C(\C(=O)N[C@@H]1C(=O)N2C(C(=O)O)=C(COC(C)=O)CS[C@H]12)c1csc(N)n1 [Cefotaxime] | – | – | 0 | 1 | Q4 | −20 | −8 | – | – | – | – | – |
| CO[C@@]1(NC(=O)C2SC(=C(C(N)=O)C(=O)O)S2)C(=O)N2C(C(=O)O)=C(CSc3nnnn3C)CS[C@@H]21 (some centres unmarked) [Cefotetan] | -11 | -5 | 0 | 0 | Q4 | – | – | – | – | – | – | – |
| CO[C@@]1(NC(=O)Cc2cccs2)C(=O)N2C(C(=O)O)=C(COC(N)=O)CS[C@@H]21 [Cefoxitin] | 6 | 8 | 0 | 0 | Q4 | – | – | – | – | – | – | – |
| Cc1cc(O)c(C(=O)N[C@@H](C(=O)N[C@@H]2C(=O)N3C(C(=O)O)=C(CSc4nnnn4C)CS[C@H]23)c2ccc(O)cc2)cn1 [Cefpiramide] | 12 | 20 | 0 | 1 | Q4 | – | – | – | – | – | – | – |
| COCC1=C(C(=O)OC(C)OC(=O)OC(C)C)N2C(=O)[C@@H](NC(=O)/C(=N\OC)c3csc(N)n3)[C@H]2SC1 (some centres unmarked) [Cefpodoxime Proxetil] | -39 | 12 | 0 | 0 | Q4 | – | – | – | – | – | – | – |
| NC(=O)c1cc[n+](CC2=C(C(=O)O)N3C(=O)[C@@H](NC(=O)[C@@H](c4ccccc4)S(=O)(=O)[O-])[C@H]3SC2)cc1 [Cefsulodin Sodium] | 3 | 14 | 0 | 0 | Q4 | – | – | – | – | – | – | – |
| Nc1nc(/C(=C/CC(=O)O)C(=O)N[C@@H]2C(=O)N3C(C(=O)O)=CCS[C@H]23)cs1 [Ceftibuten] | -7 | 12 | 0 | 1 | Q4 | – | – | – | – | – | – | – |
| CO/N=C(\C(=O)N[C@@H]1C(=O)N2C(C(=O)O)=C(CSC(=O)c3ccco3)CS[C@H]12)c1csc(N)n1 [Ceftiofur Hydrochloride] | 4 | 14 | 0 | 1 | Q4 | – | – | – | – | – | – | – |
| CO/N=C(\C(=O)N[C@@H]1C(=O)N2C(C(=O)OC(C)OC(C)=O)=C(COC(N)=O)CS[C@H]12)c1ccco1 (some centres unmarked) [Cefuroxime Axetil] | 17 | 13 | 0 | 1 | Q4 | – | – | – | – | – | – | – |
| CC(=O)OCC1=C(C(=O)[O-])N2C(=O)[C@@H](NC(=O)CCCC(N)C(=O)O)[C@H]2SC1.[Na+] (some centres unmarked) [Cephalosporin C Sodium] | – | – | 0 | 1 | Q4 | −34 | 8 | – | – | – | – | – |
| COc1ccc2cc1Oc1ccc(cc1)C[C@H]1c3c(cc4c(c3Oc3cc5c(cc3OC)CCN(C)[C@@H]5C2)OCO4)CCN1C [Cepharanthine] | – | – | – | – | – | – | – | 114 | 130 | 58 | 85 | Q2 |
| CC1=C(C(=O)O)N2C(=O)[C@@H](NC(=O)[C@H](N)C3=CCC=CC3)[C@H]2SC1 [Cephradine] | -26 | -1 | 0 | 0 | Q4 | – | – | – | – | – | – | – |

| SMILES | inhibition at 10 µM [1, 6] [%] | inhibition at 10 µM [2, 7] [%] | LPS % cell toxicity (primary rat microglia [3]; [8]) [%] | Fibrin % cell toxicity (primary rat microglia [4]; [9]) [%] | Quadrant (FIG. 5b) ([5]; primary HTS, 10 μM) | Fibrin % inhibition [1, 6] [%] | LPS % inhibition [2, 7] [%] | inhibition at 10 µM [1, 10] [%] | inhibition at 10 µM [2, 11] [%] | LPS % cell toxicity (primary rat microglia [3]; [12]) [%] | Fibrin % cell toxicity (primary rat microglia [4]; [13]) [%] | Quadrant (FIG. 5b) [5, 14] |
| --- | --- | --- | --- | --- | --- | --- | --- | --- | --- | --- | --- | --- |
| CCCCCCCCCCCCCCCC[N+](C)(C)C [Cetrimonium] | – | – | – | – | – | – | – | 114 | 132 | 12 | 28 | Q2 |
| C[C@H](CCC(=O)O)[C@H]1CC[C@H]2[C@@H]3[C@H](O)C[C@@H]4C[C@H](O)CC[C@]4(C)[C@H]3CC[C@]12C [Chenodiol] | -32 | 4 | 0 | 0 | Q4 | – | – | – | – | – | – | – |
| CN1C(=O)CCS(=O)(=O)C1c1ccc(Cl)cc1 (centres unmarked) [Chlomezanone, Chlormezanone] | – | – | 0 | 1 | Q4 | −52 | 12 | – | – | – | – | – |
| Cc1ccc(S(=O)(=O)[N-]Cl)cc1.[Na+] [Chloramine-t] | – | – | 0 | 1 | Q4 | 4 | 11 | – | – | – | – | – |
| CCCCCCCCCCCCCCCC(=O)OC[C@@H](NC(=O)C(Cl)Cl)[C@H](O)c1ccc([N+](=O)[O-])cc1 [Chloramphenicol Palmitate] | 15 | 9 | 1 | 1 | Q4 | – | – | – | – | – | – | – |
| Nc1ncnc(Nc2ccc(Cl)cc2)n1 [Chlorazanil Hydrochloride] | 0 | 3 | 0 | 1 | Q4 | – | – | – | – | – | – | – |
| CN1CCN(C(c2ccccc2)c2ccc(Cl)cc2)CC1 (centres unmarked) [Chlorcyclizine] | 9 | 6 | 0 | 1 | Q4 | – | – | – | – | – | – | – |
| Oc1ccc(Cl)c2c1CCC2 [Chlorindanol] | 23 | 15 | 0 | 1 | Q4 | – | – | – | – | – | – | – |
| O=C1c2ccccc2C(=O)C1c1ccc(Cl)cc1 [Chlorindione] | – | – | 0 | 1 | Q4 | −7 | 10 | – | – | – | – | – |
| Cc1nc2ccccc2n1Cc1ccc(Cl)cc1 [Chlormidazole] | – | – | – | – | – | – | – | 38 | 70 | 2 | 1 | Q1 |
| CC(C)(O)C(Cl)(Cl)Cl [Chlorobutanol] | -20 | 3 | 0 | 1 | Q4 | – | – | – | – | – | – | – |
| Cc1cc(O)ccc1Cl [Chlorocresol] | -25 | 11 | 0 | 1 | Q4 | – | – | – | – | – | – | – |
| CN(C)CCN(Cc1ccc(Cl)cc1)c1ccccn1 [Chloropyramine] | 25 | 13 | 0 | 1 | Q4 | – | – | – | – | – | – | – |
| NS(=O)(=O)c1cc2c(cc1Cl)N=CNS2(=O)=O [Chlorothiazide] | 20 | 3 | 0 | 0 | Q4 | – | – | – | – | – | – | – |
| Cc1cc(O)cc(C)c1Cl [Chloroxylenol] | -15 | 7 | 0 | 1 | Q4 | – | – | – | – | – | – | – |
| NC(=O)OCC(O)COc1ccc(Cl)cc1 (centres unmarked) [Chlorphenesin Carbamate] | -41 | -4 | 0 | 1 | Q4 | – | – | – | – | – | – | – |
| CCCNC(=O)NS(=O)(=O)c1ccc(Cl)cc1 [Chlorpropamide] | 3 | 17 | 1 | 1 | Q4 | – | – | – | – | – | – | – |
